# In publication PMC8227119, “Urinary Elimination of Ecdysterone and Its Metabolites Following a Single-Dose Administration in Humans” (Metabolites, 2021):
# Where “and” joins values, the source holds several entries; their conditions need not be identical. Equal entries are not always repeated. Where two headings read alike, the source gives them in different places.
# How the values were obtained:
# [1] = Urinary excretion and pharmacokinetics after a single oral dose of 50 mg of pure ecdysterone (LC-MS/MS of urine); type: in vivo, human; conditions: for Subjects in whose post-administration urine the analyte was detected: 12 subjects; for Cmax / half-life / Tmax: both sexes; for Cmax / half-life: human, po, 50 mg; for Tmax: read-out: Tmax (time to maximum urinary concentration); for Cumulative urinary excretion percentage relative to dose, mean / Cumulative urinary excretion percentage relative to dose, range over subjects: percent of the 50 mg dose; for Cumulative urinary excretion percentage relative to dose, mean: mean value; for Cumulative Du (cumulative amount excreted in urine): mean ± SD of 12 subjects (14-deoxy-poststerone n = 10); for Difference of cumulative urinary excretion percentage between male and female (T-test): p ≤ 0.05, 5 males, 7 females; for Kinetics of urinary elimination: log-linear rate of excretion versus middle-point time
# Protocol: The study was approved by the ethical committee of the German Sport University Cologne, and was carried out following the regulations of the Helsinki declaration. Twelve healthy subjects (7 females and 5 males) with a mean age (standard deviation [SD]) of 26 (3.1) y, weight of 74 (12.0) kg, and height of 174 (8.3) cm participated in the study. A single-dose of 50 mg of pure ecdysterone dissolved in 50 cl of alcoholic solution was administered to the subjects. All doses were administered at 9.00 a.m. in the morning. The urine samples were collected one day before (blank samples) and five days after the administration of ecdysterone. Sampling time (h) and urine volume (mL) were recorded. Aliquots of urine samples were stored frozen at −18 °C, until analysis.
# Urine samples (200 µL) spiked with 10 µL of the ISTD ponasterone (working solution 10 µg/mL) and diluted to 1 mL with methanol:water (10:90, v/v). The tubes were vortex-mixed and then centrifuged at 9677 RCF for 8 min.
# The analysis of ecdysterone and its metabolite in calibration and urine samples was performed by LC–MS/MS on an Agilent 1200 Infinity series, coupled to an Ultivo triple quadrupole tandem MS system, utilizing a Jet Stream electrospray ionization (ESI) source and an Ion Funnel (Agilent Technologies GmbH, Waldronn, Germany).
# In this study, the excretion profile, the cumulative amount excreted in urine, and the half-life of ecdysterone and its metabolites, after a single-dose administration of 50 mg of pure ecdysterone were evaluated according to [45].
# To obtain the excretion rates, Equation (1) was applied:(1) Erate,i=Ci x Vi/ (ti−ti−1)
# For each urine sample, the calculated concentration (Ci, ng/mL) of ecdysterone, 14-deoxy-ecdysterone, and 14-deoxy-poststerone was adjusted as a function of the dilution factor applied (1:5) and of the volume of urine collected (Vi, mL), obtaining the corresponding amount of drug in urine (expressed in ng), which was divided by the interval between the time values of the sampling and the previous sampling (ti − ti−1).
# The excretion profile curves of ecdysterone and its metabolites for each subject were then obtained by plotting the calculated rate of excretion values (ng/h) versus time (middle-point of sample collection, hours) or simply the calculated concentrations (ng/mL) versus time (sampling time, hours). The first collected interval started at 0 h after the oral administration of ecdysterone at 9 a.m.
# For each sample, the amount of drug excreted in urine was calculated and added to the amount of drug recovered in the previous urine sample to obtain the cumulative urinary drug excretion, which was plotted in a graph versus the sampling time (hours).
# The half-life using the elimination rate constant (k) was calculated by applying Equation (2):(2) t1/2=ln(2)/k
# Two different methods were used to calculate the elimination rate constant (k). In the rate of excretion method, k was obtained from the slope of the elimination phase of the ln-transformed excretion curve (Figure 6).
# In the sigma minus method, k was obtained from the slope of the elimination phase of the ln-transformed remaining drug to be excreted.
# [2] = Stability of analytes in spiked urine QC samples (bench-top, long term, freeze-thaw); type: in vitro ADME, human; conditions: vs t = 0, mean n = 3
# Protocol: The stability of ecdysterone and 14-deoxy-ecdysterone in urine was determined in triplicates, using the LQC and HQC samples, which were analyzed immediately and again after storage, as reported in Table 4. Freshly prepared QC samples (at t = 0) were used as baseline to assess the stability.
# To evaluate the bench-top stability, LQC and HQC samples were left at room temperature for 4, 8, and 24 h, before analysis. Freeze and thaw stability was evaluated after three cycles for LQC and HQC. Long-term stability was evaluated analyzing the LQC and HQC samples, after storing them at −20 °C for two weeks. The results of the stability tests applied were calculated using the peak area ratio of the analytes to the ISTD, which were compared to the baseline (t = 0). Comparing the mean of the ratios after a specific storage condition to the mean of the ratio at t = 0. The results obtained were all within the ±15%.
# [3] = single oral dose 50 mg ecdysterone
# [4] = urine, human urine, single oral dose 50 mg ecdysterone, mean ± SD of 12 subjects (14-deoxy-poststerone n = 5), read-out: Cmax (maximum urinary concentration)
# [5] = urine, human urine, single oral dose 50 mg ecdysterone, mean ± SD of 12 subjects (14-deoxy-poststerone n = 5), read-out: Half Life, Rate of Excretion method (converted)
# [6] = urine, human urine, single oral dose 50 mg ecdysterone, mean ± SD of 12 subjects (14-deoxy-poststerone n = 5), read-out: Half Life, Sigma-Minus method (converted)
# [7] = urine, human urine, single oral dose 50 mg ecdysterone, range over subjects, read-out: Maximum urinary concentration (Cmax), range over subjects
# [8] = human urine, single oral dose 50 mg ecdysterone, mean ± SD of 12 subjects (14-deoxy-poststerone n = 5)
# [9] = human urine, range over subjects
# [10] = human urine, single oral dose 50 mg ecdysterone
# [11] = human urine, single oral dose 50 mg ecdysterone, range over subjects
# [12] = HQC, bench-top room temperature 4 h
# [13] = HQC, bench-top room temperature 8 h
# [14] = HQC, bench-top room temperature 24 h
# [15] = HQC, long term 2 weeks at −20 °C
# [16] = LQC, bench-top room temperature 4 h
# [17] = LQC, bench-top room temperature 8 h
# [18] = LQC, bench-top room temperature 24 h
# [19] = LQC, long term 2 weeks at −20 °C
SMILES,"Subjects in whose post-administration urine the analyte was detected [1, 3]","Cmax [1, 4] [ng/mL]","half-life [1, 5] [h]","half-life [1, 6] [h]","Cmax [1, 7] [ng/mL]","Tmax [1, 8] [h]","Cumulative urinary excretion percentage relative to dose, mean ([1]; human urine) [%]","Cumulative urinary excretion percentage relative to dose, range over subjects [1, 9]","Duration of detectability in urine [1, 10]","First detection in urine after administration (start of detection window) [1, 10] [h]","Remained detectable in urine until (end of detection window) [1, 10] [h]","ERmax (maximum urinary rate of excretion) [1, 8] [mg/h]","Midpoint Timemax (maximum urinary middle-point time) [1, 8] [h]","Cumulative Du (cumulative amount excreted in urine) [1, 10] [mg]","Time of the urine with maximum concentration, range over subjects [1, 11]",Difference of cumulative urinary excretion percentage between male and female (T-test) [1],"Urinary half-life (approximate) [1, 10]","Maximum excretion rate, range over subjects [1, 11] [mg/h]","Time of the urine with maximum excretion rate, range over subjects [1, 11] [h]",Kinetics of urinary elimination [1],further results
"CC(=O)[C@H]1CC[C@H]2C3=CC(=O)[C@@H]4C[C@@H](O)[C@@H](O)C[C@]4(C)[C@H]3CC[C@]12C [14-deoxy-poststerone, alpha-14-deoxy-poststerone]",10 out of 12,800 ± 700,9.7 ± 9.5,4.4 ± 1,100 to 1500,30.1 ± 7.2,1.5,0.01–4.9%,about 4 days,8.50,97,0.1 ± 0.1,27.8 ± 3.7,0.7 ± 1.1,23.3 to 41.3 h,significant difference,–,–,–,–,–
"CC(C)(O)CC[C@@H](O)[C@](C)(O)[C@H]1CC[C@H]2C3=CC(=O)[C@@H]4C[C@@H](O)[C@@H](O)C[C@]4(C)[C@H]3CC[C@]12C [14-deoxy-ecdysterone, Alpha-14-deoxy-ecdysterone]",all 12 subjects,1400 ± 1600,3.1 ± 1.3,2.2 ± 0.9,100 to 6000,19.7 ± 8.9,2.3,0.4–6.1%,about 3 days,2.95,75,0.1 ± 0.1,17.5 ± 7.0,1.1 ± 0.9,8.5 to 39.5 h and 8.5 to 39.50 h,No significant difference,three,0.02 to 0.24,10.1 to 29.5,first-order kinetics,"half-life ([1]; urine, human urine, single oral dose 50 mg ecdysterone, read-out: Urinary half-life (approximate) (converted)): ~3 h; Time at which cumulative urinary excretion reaches a plateau ([1]; in 58.3% of subjects): 25 to 40 h; Time at which cumulative urinary excretion reaches a plateau ([1]; in the remaining 16.6% of subjects): 40 to 62 h; Stability% [2, 12]: 101%; Stability% [2, 13]: 100%; Stability% [2, 14]: 101%; Stability% ([2]; HQC, freeze-thaw 3 cycles): 103%; Stability% [2, 15]: 87%; Stability% [2, 16]: 103%; Stability% [2, 17]: 101%; Stability% [2, 18]: 97%; Stability% ([2]; LQC, freeze-thaw 3 cycles): 110%; Stability% [2, 19]: 91%"
"CC(C)(O)CC[C@@H](O)[C@](C)(O)[C@H]1CC[C@@]2(O)C3=CC(=O)[C@@H]4C[C@@H](O)[C@@H](O)C[C@]4(C)[C@H]3CC[C@]12C [Ecdysterone, 2β,3β,14α,20β,22R,25-hexahydroxy-5β-cholest-7-en-6-one]",all subjects,–,–,–,–,–,18,2.8–47.2%,more than 2 days,–,58,1.7 ± 1.4,2.1 ± 1.3,8.8 ± 6.6,2.8 to 8.5 h,No significant difference,three,0.1 to 4.8,0.4 to 4.4,first-order kinetics,"Cmax ([1]; in vivo, human urine, single oral dose 50 mg ecdysterone, mean ± SD of 12 subjects (14-deoxy-poststerone n = 5), read-out: Cmax (maximum urinary concentration)): 12100 ± 9200 ng/mL; half-life ([1]; in vivo, human urine, single oral dose 50 mg ecdysterone, mean ± SD of 12 subjects (14-deoxy-poststerone n = 5), read-out: Half Life, Rate of Excretion method (converted)): 3.4 ± 1 h; half-life ([1]; in vivo, human urine, single oral dose 50 mg ecdysterone, mean ± SD of 12 subjects (14-deoxy-poststerone n = 5), read-out: Half Life, Sigma-Minus method (converted)): 3 ± 1 h; Cmax ([1]; in vivo, human urine, single oral dose 50 mg ecdysterone, range over subjects, read-out: Maximum urinary concentration (Cmax), range over subjects): 4400 to 30000 ng/mL; half-life ([1]; in vivo, human urine, single oral dose 50 mg ecdysterone, read-out: Urinary half-life (approximate) (converted)): ~3 h; Tmax ([1]; in vivo, human urine, single oral dose 50 mg ecdysterone, mean ± SD of 12 subjects (14-deoxy-poststerone n = 5)): 4.6 ± 1.8 h; Time at which cumulative urinary excretion reaches a plateau ([1]; human urine, post-dosage): 12 h; First detection in urine after administration [1, 10]: 45 min; Kinetics of urinary elimination ([1]; listed as ecdysterone): first-order; Stability% [2, 12]: 101%; Stability% [2, 13]: 98%; Stability% [2, 14]: 100%; Stability% ([2]; HQC, freeze-thaw 3 cycles): 103%; Stability% [2, 15]: 87%; Stability% [2, 16]: 100%; Stability% [2, 17]: 104%; Stability% [2, 18]: 100%; Stability% ([2]; LQC, freeze-thaw 3 cycles): 111%; Stability% [2, 19]: 94%"
